These results are taken from US5254571A, “Chemical compounds” (Smith Kline & French Laboratories Ltd., priority 1988, dated 1993).

Assay [1] has as its system U46619-induced bronchoconstriction. Put plainly: Bronchodilatation in vivo: inhibition of U46619-induced bronchoconstriction in anaesthetised guinea-pigs. The arrangement: species or system guinea-pig (male, Dunkin Hartley). To be noted: Cavia porcellus, iv, U46619 infused i.v. 2.5 nmol/min, compound i.v. bolus, peak inhibition, read-out: BD50 (dose required to reduce the U46619-induced bronchoconstriction by 50%). The procedure: Male guinea-pigs of the Dunkin Hartley strain (500-600 g) were anaesthetised with Sagatal (pentobarbital sodium) (60 mg/kg). Airway resistance was measured using a modification of the classical Konzett-Rossler technique (J. Pharm. Methods, 13, 309-315, 1985). U46619 (9,11-methanoepoxy-pGH2) was infused i.v. at a rate of 2.5 nmol/min, this produced a steady state of bronchoconstriction (approximately 120% increase from basal airway resistance). The compound under test was administered by i.v. bolus injection, and the subsequent peak inhibition of bronchoconstriction recorded.
The dose of compound required to reduce the U46619-induced bronchoconstriction by 50% is given as the BD50.

Assay [2] has as its system hindquarter blood flow / vascular resistance. Put plainly: Vasodilatation in vivo: hindquarter blood flow in anaesthetised rats. The arrangement: species or system rat (male Wistar). Particulars: Rattus norvegicus, iv, bolus i.v., from dose response curves, read-out: EDHQ50 (dose required to produce a 50% increase in hindquarter blood flow). The procedure: Male Wistar rats (300 g) were anaesthetised with a sodium 5-ethyl-5-(1-methylpropyl)-2-thiobarbiturate/sodium pentobarbitone mixture i.p. (62.5 and 22.5 mg/kg respectively). The trachea was cannulated and the rats breathed spontaneously air enriched with O2 (5 ml/min). Blood pressure was recorded from a carotid artery and a jugular vein was cannulated for the administration of compounds. The temperature of the animal was maintained at 37° C. by the use of an electric blanket. […] The perfusion circuit was primed with 5% bovine serum albumin dissolved in 0.9% sodium chloride solution, pH adjusted to 7.4. Initially the pump rate was set between 10 and 15 ml/min to match the hind quarter perfusion pressure to that of the systemic circulation. Once set, the pressure remained unaltered for the rest of the experiment. A change in the speed of the pump (equivalent to hindquarter blood flow) was used to assess the changes in hindquarter vascular resistance.
All compounds were administered as a bolus i.v. and from the dose response curves the dose required to produce a 50% increase in hindquarter blood flow (EDHQ50) was determined in μmoles/kg.

Assay [3] addresses calmodulin insensitive cyclic GMP phosphodiesterase (Homo sapiens, UniProt O76074). Put plainly: Phosphodiesterase activity: inhibition of calmodulin insensitive cyclic GMP phosphodiesterase. In kind it is biochemical. Particulars: procedure described in European Patent Application No. 293063; range given for the listed Examples together; read-out: IC50 (concentration of inhibitor required for 50% inhibition of enzyme activity). The procedure: The activity of the compounds of the present invention as inhibitors of a calmodulin insensitive cyclic GMP phosphodiesterase was measured using the procedure described in European Patent Application No. 293063. […] The compounds of the present invention have the advantage that they are selective in not inhibiting cyclic AMP phosphodiesterase (type III).

Assay [4] has as its system ovalbumen-induced bronchoconstrictor response. As to the kind of experiment: Anti-allergic activity: ovalbumen-induced bronchoconstriction in sensitised guinea-pigs. In kind it is in vivo, guinea-pig (male, Duncan Hartley). Particulars: 11 μmol/kg i.v. bolus; 30 minutes following drug administration; ovalbumen 1 mg/kg i.v. challenge; n = 6. The procedure:
Male Duncan Hartley guinea-pigs (250-300 g) were sensitised to ovalbumen by i.p. injection of 2 ml of 50 mg.ml^-1 i.p. and 0.2 ml s.c. Three weeks later they were anaesthetised with 60 mg.kg^-1 sodium pentabarbitone. The trachea was cannulated and the animal respired at a rate of 40 breaths per minute and at an initial tracheal inflation pressure of 16 mmHg. Tracheal inflation pressure was measured by a transducer connected to a side arm of the respiration circuit The carotid artery was cannulated for the measurement of blood pressure and the signal was used to trigger an instantaneous rate meter. A jugular vein was cannulated for the administration of drug and allergen. After surgery the animals were allowed to stabilise and the drug was administered i.v. as a bolus. Following this, ovalbumen 1 mg.kg^-1 was injected i.v. as the antigen challenge either 2, 15 or 30 minutes following drug treatment and the peak bronchoconstrictor response recorded. For the control group ovalbumen only was given. One ovalbumen challenge per guinea-pig was used and n = 6 for each time point. The percentage increase in tracheal inflation pressure was calculated.

SMILES strings stand for the structures.

For `CCCOc1ccccc1-c1ccc(C#N)c(=O)[nH]1` [Example 1, 3-Cyano-6-(2-propoxyphenyl)-2(1H)-pyridinone], the ED50 in assay [1] turned out to be 10 µmol/kg. For the same compound, in assay [2], the ED (50% increase) was found to be 11.5 µmol/kg. Also, the IC50 in assay [3] is 1.7 to 30 µM.

With `CCCOc1ccccc1-c1ccc(C(N)=O)c(=O)[nH]1` [Example 2, 6-(2-Propoxyphenyl)-1,2-dihydro-2-oxopyridine-3-carboxamide], the ED50 in assay [1] came out at 1.1 µmol/kg. The ED (50% increase) in assay [2] came to 14 µmol/kg. The “inhibition of the control bronchoconstrictor response” value in assay [4] came to 44%. Further, in assay [3], the IC50 lay in the range of 1.7 to 30 µM.

For the compound `CCCOc1ccccc1-c1ccc(C(=O)O)c(=O)[nH]1` [Example 3, 6-(2-Propoxyphenyl)-1,2-dihydro-2-oxopyridine-3-carboxylic acid], in assay [1], the ED50 came out at 10.6 µmol/kg. For the compound `CCCOc1ccccc1-c1ccc(C(=O)OC)c(=O)[nH]1` [Example 4, Methyl 6-(2-propoxyphenyl)-1,2-dihydro-2-oxopyridine-3-carboxylate], the IC50 in assay [3] lay within 1.7 to 30 µM.

Regarding `CCCOc1ccccc1-c1cccc(=O)[nH]1` [Example 6, 6-(2-Propoxyphenyl)-2(1H)-pyridinone], the IC50 in assay [3] fell in the range of 1.7 to 30 µM. On to `CCCOc1ccccc1-c1ccc([N+](=O)[O-])c(=O)[nH]1` [Example 7, 3-Nitro-6-(2-propoxyphenyl)-2(1H)-pyridinone], for which the ED50 in assay [1] was determined as 7.7 µmol/kg. Further, in assay [3], the IC50 is 1.7 to 30 µM.

As to `CCOc1ccccc1-c1ccc(C#N)c(=O)[nH]1` [Example 9, 3-Cyano-6-(2-ethoxyphenyl)-2(1H)-pyridinone], the IC50 in assay [3] was 1.7 to 30 µM. On to `CCCOc1ccccc1-c1cc(C)c(C#N)c(=O)[nH]1` [Example 11, 3-Cyano-4-methyl-6-(2-propoxyphenyl)-2(1H)-pyridinone], for which, in assay [1], the ED50 worked out at 2.3 µmol/kg. Also, the IC50 in assay [3] was in the range of 1.7 to 30 µM. With `CCCOc1ccccc1-c1[nH]c(=O)c(C#N)cc1C` [Example 12, 3-Cyano-5-methyl-6-(2-propoxyphenyl)-2(1H)-pyridinone], the IC50 in assay [3] is 1.7 to 30 µM. On to `CCCOc1ccccc1-c1ccc(C#N)c(=S)[nH]1` [Example 14, 3-Cyano-6-(2-propoxyphenyl)-2(1H)-pyridinethione], for which the IC50 in assay [3] fell in the range of 1.7 to 30 µM.
